Results taken from patent US8354431B2, “Aryl carboxylic acid cyclohexyl amide derivatives” (Novartis AG, priority 2007, dated 2013).

Columns and labels:
Human CCR5 = target: T1, Human CCR5 (Homo sapiens, UniProt P51681); test: CCR5 membrane binding assay ([I-125]MIP-1α); details: table does not name the assay; b437 says 'in these assays'
T1 construct: expressed in transfected cells; host or cells: CHO K1
Protocol: Human CCR5 is used to generate stable transfectants in CHO K1 cells. Membranes prepared from these CCR5 transfectants are used in a radioligand binding assay using 125-1-MIP-1α as a ligand and the compounds of formula I are tested for inhibitory activity. The data are reported as IC50, i.e. the concentration of compound required to achieve 50% inhibition of [I-125]MIP-1α binding. In this assay, compounds of formula I have an IC50 between 0.004 and 10 μM.

CCR2 receptor = test: Receptor occupancy of the CCR2 receptor over time (blood monocytes, FACS); type: in vivo; details: dose 10 mg/kg
Protocol: The Agents of the Invention typically have a favourable pharmacokinetic profile, i.e. such as a relatively fast elimination over time. A faster elimination is typically indicative for an improved tolerability or is typically associable with less side effects. Such may be assessed by determining for example the receptor occupancy of the CCR2 receptor over time.
Receptor occupancy assaying may be performed in 96-well plates. 45 microliters of freshly obtained blood samples are incubated with 5 microliter of a MCP-1 solution (several concentrations for assessing a biding curve). The concentration of said MCP-1 solution is from 0.01 to 100 nanomolar, whereby the dilutions are made in RPMI1640 with glutamax supplemented with 1% nonessential amino acids, sodium pyruvate, penicillin/streptomycin, […] beta-mercaptoethanol and 1% human albumin.
Said incubation is carried out for 30 min at 37° C., and is then stopped by adding 180 microliter BD FACS lysis solution followed by centrifugation. Said lysis addition and centrifugation is repeated once and the remaining cells are then washed with ice cold FACS buffer ([…] containing 2% FCS and 0.1% NaN3). Thereupon, the cells are stained with antibodies for FACS analysis.
The cells are now triple stained with FITC-conjugated anti-CD14, PE-conjugated anti-HLA-DR and APC-conjugated anti-CCR2. The antibodies are diluted into FACS buffer, supplemented with 3 mg/ml juman IgG, and the staining is performed in a total of 25 microliter for 30 min. on ice. The stained cells are washed twice with cold FACS buffer and then analyzed by flow cytometry using a FACScalibur and CellQuest software. The expression of CCR2 on CD-14- and HLA-DR-positive monocytes is determined and expressed as mean fluorescence intensity (MFI). The relative CCR2 expression is expressed as percent of control staining.

hCCR2b = target: T2, hCCR2b (Homo sapiens, UniProt P41597); test: CCR2 membrane binding assay (SPA, [125I] MCP-1); details: table does not name the assay; b437 says 'in these assays'
T2 construct: expressed in transfected cells; host or cells: CHO-dukX
T2 sequence (P41597 1-360 isoform P41597-2): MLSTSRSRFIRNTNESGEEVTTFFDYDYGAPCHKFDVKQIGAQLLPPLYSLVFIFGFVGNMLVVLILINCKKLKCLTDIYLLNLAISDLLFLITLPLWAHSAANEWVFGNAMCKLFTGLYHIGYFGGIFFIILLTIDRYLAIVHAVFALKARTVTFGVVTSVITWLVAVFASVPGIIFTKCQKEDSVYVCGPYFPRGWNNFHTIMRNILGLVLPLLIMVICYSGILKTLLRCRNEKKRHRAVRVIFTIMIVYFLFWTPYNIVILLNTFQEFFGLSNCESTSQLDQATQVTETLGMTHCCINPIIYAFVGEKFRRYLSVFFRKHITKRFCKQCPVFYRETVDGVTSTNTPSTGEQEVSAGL
Protocol: Transfected CHO-dukX cells stably expressing the hCCR2b gene are grown in MEM alpha medium to a confluency of between 70 and 80%. After discarding the medium, 30 ml ice-cold physiological buffer solution containing 1 mM EDTA are added and the cells removed from the plate using a scraper. The cell suspension is centrifuged at 800 g for 10′ at 4° C. and the cell pellet resuspended in buffer. Cell lysis is done using a Polytron PTI300D instrument at 28 000 RPM for 2 times 30 seconds on ice. Membranes are collected by centrifugation at 42 000 g for 20 minutes at 4° C. and subjected to a second round of lysis (Polytron, 28 000 RPM, 2×30 seconds on ice). Following centrifugation at 42 000 g for 20 minutes at 4° C. the membranes are resuspended in buffer at a protein concentration of 2 mg/ml and stored at −80° C. Ten millimolar stock solutions of test compounds in 100% DMSO are prepared. Test compounds are further diluted in buffer to yield the four-fold concentrated solutions for the tests that assayed a range of 10^−10 to 10^−5 M. The SPA assay is performed in a final volume of 200 μl per well in 96 well plates. The components are added per well in the following order: • 50 μl Buffer (+/−test compound) • 50 μl Wheat germ agglutinin-SPA beads (1.25 mg/well) in buffer • 50 μl CCR2B membrane suspension diluted with buffer to 0.04 mg/ml (2 μg/well), alternatively 50,000 cells per well • 50 μl [^125I] MCP-1 in buffer (60 pM final concentration, 2.5 μCi/plate)
After addition of all components the plate is sealed and incubated for 90 minutes at room temperature with constant shaking. Following incubation the plate is centrifuged at 1000 RPM in a Sorvall RC3B centrifuge for 4 minutes at room temperature and counted for 3 minutes per well in a TOP COUNT instrument (Packard). The quench-corrected counts are used for the analysis of radioligand binding.

T1 sequence (P51681 whole entry): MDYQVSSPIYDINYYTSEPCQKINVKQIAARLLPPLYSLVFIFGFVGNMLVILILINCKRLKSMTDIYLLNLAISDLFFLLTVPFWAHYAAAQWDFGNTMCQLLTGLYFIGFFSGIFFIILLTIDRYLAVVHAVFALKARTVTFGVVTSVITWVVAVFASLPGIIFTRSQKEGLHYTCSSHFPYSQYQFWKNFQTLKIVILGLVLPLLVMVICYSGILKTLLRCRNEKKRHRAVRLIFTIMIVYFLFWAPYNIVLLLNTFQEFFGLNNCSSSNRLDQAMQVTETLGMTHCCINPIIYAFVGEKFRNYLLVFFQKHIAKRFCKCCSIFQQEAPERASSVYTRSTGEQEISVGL

IC50 (Human CCR5)	IC50 (hCCR2b)	Structure (SMILES)	Receptor blockade After 2 hrs in % (CCR2 receptor)	Receptor blockade After 24 hrs in % (CCR2 receptor)
4.8 nM	0.4 nM	C[C@H]1CN(CC[C@]2(O)CC[C@@H](NC(=O)c3cc4c(OCc5coc6cc(OCC7CC7)ccc56)cccc4[nH]3)CC2)CC[C@@H]1O [Example 15, 4-(6-Cyclopropylmethoxy-benzofuran-3-ylmethoxy)-1H-indole-2-carboxylic acid {4-hydroxy-4-[2-((3S,4S)-4-hydroxy-3-methyl-piperidin-1-yl)-ethyl]-cyclohexyl}-amide]	103.2%	42.6%
2.9 nM	0.8 nM	CCOCCOc1ccc2c(COc3cccc4[nH]c(C(=O)N[C@H]5CC[C@](O)(CCN6CC[C@H](O)[C@@H](C)C6)CC5)cc34)coc2c1 [Example 16, 4-[6-(2-Ethoxy-ethoxy)-benzofuran-3-ylmethoxy]-1H-indole-2-carboxylic acid {4-hydroxy-4-[2-((3S,4S)-4-hydroxy-3-methyl-piperidin-1-yl)-ethyl]-cyclohexyl}-amide]	78.1%	21.6%
3.3 nM	0.2 nM	CC(C)OCCOc1ccc2c(COc3cccc4[nH]c(C(=O)N[C@H]5CC[C@](O)(CCN6CC[C@H](O)[C@@H](C)C6)CC5)cc34)coc2c1 [Example 18, 4-[6-(2-Isopropoxy-ethoxy)-benzofuran-3-ylmethoxy]-1H-indole-2-carboxylic acid {4-hydroxy-4-[2-((3S,4S)-4-hydroxy-3-methyl-piperidin-1-yl)-ethyl]-cyclohexyl}-amide]	88.2%	43.5%
